# Results published in patent US8420657B2 (Novartis AG, priority 2008, dated 2013).
# Where two headings read alike, the source gives them in different places.
# How the values were obtained:
# ALK = molecular target: T1, ALK (Homo sapiens, UniProt Q9UM73); assay: ALK LanthaScreen TR-FRET kinase phosphorylation assay; assay type: biochemical; conditions: recombinant kinase domain
# T1 construct: using the recombinant domains of cMet, cKit, ALK and PDGFRalpha kinases
# Method: (§1) The compounds are assayed in an antibody based kinase phosphorylation assay using the recombinant domains of cMet, cKit, ALK and PDGFRalpha kinases and a generic phospho-tyrosine peptide substrate. LanthaScreen™ is the detection of Time-Resolved Fluorescence Resonance Energy Transfer (TR-FRET) using lanthanide chelates to measure interactions between various binding partners. In a TR-FRET kinase assay, a long-lifetime lanthanide donor species is conjugated to an antibody that specifically binds to a phosphorylated product of a kinase reaction that is labeled with a suitable acceptor fluorophore. This antibody-mediated interaction brings the lanthanide donor and the acceptor into proximity such that resonance energy transfer can take place, resulting in a detectible increase in FRET. The LanthaScreen is run at ambient temperature and terminated by the addition of stop solution, followed by Tb-labeled P-20 antibody. After incubating in the dark, the plates are transferred to a fluorescence reader for counting. The effect of compound on the enzymatic activity is in all assays obtained from the linear progress curves and determined from one reading (end point measurement).
# GST-JAK2(808-1132) = molecular target: T2, GST-JAK2(808-1132) (Homo sapiens, UniProt O60674); assay: JAK2 kinase assay (Caliper mobility shift, LabChip 3000); assay type: biochemical
# T2 construct: GST-JAK2(808-1132); purchased Invitrogen (Carlsbad, USA) #4288
# T2 sequence (O60674 808-1132): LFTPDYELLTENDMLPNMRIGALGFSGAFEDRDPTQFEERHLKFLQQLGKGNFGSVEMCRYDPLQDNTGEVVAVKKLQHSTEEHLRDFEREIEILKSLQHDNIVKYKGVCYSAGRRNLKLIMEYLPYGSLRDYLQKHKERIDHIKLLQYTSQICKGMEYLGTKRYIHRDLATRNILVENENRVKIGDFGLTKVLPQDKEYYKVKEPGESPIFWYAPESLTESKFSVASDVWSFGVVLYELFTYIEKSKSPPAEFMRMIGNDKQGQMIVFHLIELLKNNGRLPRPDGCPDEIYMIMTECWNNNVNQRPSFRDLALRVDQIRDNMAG
# Outline: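 Eight-point compound series (final 10–0.003 μM) tested on purchased GST-JAK2 kinase domain (808-1132). Peptide FITC-JAK3tide plus ATP reacted 60 min, 30 °C, then quenched with EDTA; turnover from charge-based separation of substrate and product.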
# PDGFRalpha = molecular target: T3, PDGFRalpha (Homo sapiens, UniProt P16234); assay: PDGFRalpha LanthaScreen TR-FRET kinase phosphorylation assay; assay type: biochemical; conditions: recombinant kinase domain, read-out: PDGFRa/IC50
# T3 construct: using the recombinant domains of cMet, cKit, ALK and PDGFRalpha kinases
# T3 sequence (P16234 593-954 limits assumed, species assumed): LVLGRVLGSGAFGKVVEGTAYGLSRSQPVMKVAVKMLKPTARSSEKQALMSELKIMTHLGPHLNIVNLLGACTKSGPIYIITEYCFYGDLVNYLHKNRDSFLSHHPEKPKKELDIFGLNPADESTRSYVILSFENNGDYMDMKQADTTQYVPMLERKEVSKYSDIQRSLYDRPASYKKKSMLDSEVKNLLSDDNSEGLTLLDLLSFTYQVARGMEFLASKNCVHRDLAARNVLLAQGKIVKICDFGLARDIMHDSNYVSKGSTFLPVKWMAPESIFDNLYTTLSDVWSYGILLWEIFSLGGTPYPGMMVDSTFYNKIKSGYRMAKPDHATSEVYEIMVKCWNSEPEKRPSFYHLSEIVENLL
# Method: as §1
# cKit = molecular target: T4, cKit (Homo sapiens, UniProt P10721); assay: cKit LanthaScreen TR-FRET kinase phosphorylation assay; assay type: biochemical; conditions: recombinant kinase domain
# T4 construct: using the recombinant domains of cMet, cKit, ALK and PDGFRalpha kinases
# T4 sequence (P10721 589-937 limits assumed): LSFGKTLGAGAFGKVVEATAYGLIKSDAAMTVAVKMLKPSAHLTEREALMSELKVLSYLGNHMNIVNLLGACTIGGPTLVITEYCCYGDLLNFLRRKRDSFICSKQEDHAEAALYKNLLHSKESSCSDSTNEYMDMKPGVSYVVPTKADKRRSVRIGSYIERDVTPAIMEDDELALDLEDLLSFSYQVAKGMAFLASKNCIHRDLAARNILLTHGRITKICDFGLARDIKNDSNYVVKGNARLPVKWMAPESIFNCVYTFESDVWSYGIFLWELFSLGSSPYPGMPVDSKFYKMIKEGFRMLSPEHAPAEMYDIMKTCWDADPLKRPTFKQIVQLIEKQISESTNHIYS
# Method: as §1
# cMet = molecular target: T5, cMet (Homo sapiens, UniProt P08581); assay: cMet LanthaScreen TR-FRET kinase phosphorylation assay; assay type: biochemical; conditions: recombinant kinase domain
# T5 construct: using the recombinant domains of cMet, cKit, ALK and PDGFRalpha kinases
# T5 sequence (P08581 1078-1345 limits assumed): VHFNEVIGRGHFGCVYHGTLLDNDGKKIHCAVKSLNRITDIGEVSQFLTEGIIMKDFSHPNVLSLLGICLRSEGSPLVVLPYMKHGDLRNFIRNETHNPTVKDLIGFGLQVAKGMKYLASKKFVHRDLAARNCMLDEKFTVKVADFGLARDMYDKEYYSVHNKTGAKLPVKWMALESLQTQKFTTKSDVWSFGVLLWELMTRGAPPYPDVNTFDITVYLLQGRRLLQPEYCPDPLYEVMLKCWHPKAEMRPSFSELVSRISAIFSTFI
# Method: as §1
# [1] = tested on: JAK2-dependent nuclear translocation of STAT5-GFP in U-2 OS osteosarcoma cells; assay: STAT5 nuclear translocation assay (Cellomics), rhEpo stimulated U-2 OS STAT5-GFP cells; assay type: cell-based; conditions: Homo sapiens, U2OS; STAT5 translocation pathway
# Outline: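 U-2 OS cells stably expressing STAT5a-GFP and EpoR pre-treated with compound (final 10 μM to 0.003 μM, 0.1% DMSO) for 30 min at 37° C., then stimulated 1 h with 5 U/ml rhEpo. Nuclear-cytoplasmic GFP differential quantified by automated imaging (≥1000 cells/well, Hoechst nuclear mask). IC50 from % translocation normalized to untreated and DMSO-stimulated controls.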
# [2] = tested on: JAK1/JAK2-dependent nuclear translocation of STAT1-GFP in HT1080 fibrosarcoma cells; assay: STAT1 nuclear translocation assay (Cellomics), IFN-γ stimulated HT1080 STAT1-GFP cells; assay type: cell-based; conditions: Homo sapiens, HT-1080, STAT1 translocation pathway
# Outline: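 IC50 derived from percent nuclear STAT1-GFP translocation, computed from nuclear minus cytoplasmic GFP intensity against untreated baseline and DMSO-stimulated control. Stable HT1080 STAT1-GFP cells received compound (0.003–10 μM, 0.1% DMSO) 30 min ahead of a 2 h 100 ng/ml IFN-γ stimulus, then fixation and Hoechst nuclear masking.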
# T1 sequence (Q9UM73 1116-1392 limits assumed, species assumed): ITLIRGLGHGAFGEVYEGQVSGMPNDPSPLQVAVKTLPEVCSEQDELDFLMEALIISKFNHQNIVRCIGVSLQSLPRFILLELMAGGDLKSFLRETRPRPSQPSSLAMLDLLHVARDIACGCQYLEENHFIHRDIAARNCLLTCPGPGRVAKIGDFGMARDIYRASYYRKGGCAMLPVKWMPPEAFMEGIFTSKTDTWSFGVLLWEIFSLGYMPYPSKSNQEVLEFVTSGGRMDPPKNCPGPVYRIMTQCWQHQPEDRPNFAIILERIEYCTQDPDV
SMILES,IC50 (ALK) [nM],IC50 (GST-JAK2(808-1132)) [nM],IC50 (GST-JAK2(808-1132); Table 3) [nM],IC50 (PDGFRalpha) [nM],IC50 (cKit) [nM],IC50 (cMet) [nM],IC50 [1] [nM],IC50 [2] [nM]
"CN1CCN(c2ccc(Nc3ncc4ccn(-c5ccc(C#N)cc5)c4n3)cn2)CC1 [Example 278, 4-{2-[6-(4-Methyl-piperazin-1-yl)-pyridin-3-ylamino]-pyrrolo[2,3-d]pyrimidin-7-yl}-benzonitrile]",> 10000,11,11,2650,1350,1400,,
"OCCN1CCOC[C@@H]1c1ccc(Nc2ncc3ccn(-c4cc(F)c(CN5CCOCC5)c(F)c4)c3n2)cc1 [Example 521, 2-((S)-3-{4-[7-(3,5-difluoro-4-morpholin-4-ylmethyl-phenyl)-7H-pyrrolo[2,3-d]pyrimidin-2-ylamino]-phenyl}-morpholin-4-yl)-ethanol]",> 10000,≤ 3,< 3,2800,2900,3500,,
"N#Cc1ccc(Nc2ncc3ccn(-c4ccc(C(=O)N5CCOCC5)cc4)c3n2)cn1 [Example 235, 5-{7-[4-(Morpholine-4-carbonyl)-phenyl]-7H-pyrrolo[2,3-d]pyrimidin-2-ylamino}-pyridine-2-carbonitrile]",> 10000,56,56,> 10000,> 10000,> 10000,,
"C[C@@H]1CN(Cc2c(F)cc(-n3ccc4cnc(Nc5ccc(N6CCN(C)CC6)nc5)nc43)cc2F)C[C@H](C)O1 [Example 447, {7-[4-(cis-2,6-dimethyl-morpholin-4-ylmethyl)-3,5-difluoro-phenyl]-7H-pyrrolo[2,3-d]pyrimidin-2-yl}-[6-(4-methyl-piperazin-1-yl)-pyridin-3-yl]-amine]",,9.6,,,,,11.8,105
"Cc1ccc(Nc2ncc3ccn(-c4cc(F)c(CN5CCS(=O)(=O)CC5)c(F)c4)c3n2)cc1CN1CCC(N(C)C)C1 (racemic) [Example 435, [3-(3-Dimethylamino-pyrrolidin-1-ylmethyl)-4-methyl-phenyl]-{7-[4-(1,1-dioxido-thiomorpholin-4-ylmethyl)-3,5-difluoro-phenyl]-7H-pyrrolo[2,3-d]pyrimidin-2-yl}-amine]",,≤ 3,,,,,3.4,
"Cc1ccc(Nc2ncc3ccn(-c4cc(F)c(CN5CCOCC5)c(F)c4)c3n2)cc1CN1CCN(C2CC2)CC1 [Example 365, [3-(4-Cyclopropyl-piperazin-1-ylmethyl)-4-methyl-phenyl]-[7-(3,5-difluoro-4-morpholin-4-ylmethyl-phenyl)-7H-pyrrolo[2,3-d]pyrimidin-2-yl]-amine]",,4.6,,,,,43,
"C[C@@H]1CN(c2ccc(Nc3ncc4ccn(-c5ccc(S(N)(=O)=O)cc5)c4n3)cn2)C[C@H](C)N1 [Example 369, 4-{2-[6-(cis-3,5-Dimethyl-piperazin-1-yl)-pyridin-3-ylamino]-pyrrolo[2,3-d]pyrimidin-7-yl}-benzenesulfonamide]",,≤ 3,,,,,57,
"C[C@@H]1CN(C(=O)c2cccc(Nc3ncc4ccn(-c5cc(F)c(CN6CCOCC6)c(F)c5)c4n3)c2)C[C@H](C)N1 [Example 455, {3-[7-(3,5-Difluoro-4-morpholin-4-ylmethyl-phenyl)-7H-pyrrolo[2,3-d]pyrimidin-2-ylamino]-phenyl}-(cis-3,5-dimethyl-piperazin-1-yl)-methanone]",,4.3,,,,,38,
"Cc1ccc(Nc2ncc3ccn(-c4ccc(C(=O)N5CCOCC5)c(F)c4)c3n2)cc1CN1CCOC2(COC2)C1 [Example 359, (4-{2-[3-(2,5-Dioxa-8-aza-spiro[3,5]non-8-ylmethyl)-4-methyl-phenylamino]-pyrrolo[2,3-d]pyrimidin-7-yl}-2-fluoro-phenyl)-morpholin-4-yl-methanone]",,7.4,,,,,135,
"Cc1ccc(Nc2ncc3ccn(-c4cc(F)c(CN5CCOCC5)c(F)c4)c3n2)cc1Cn1cnnc1 [Example 414, [7-(3,5-Difluoro-4-morpholin-4-ylmethyl-phenyl)-7H-pyrrolo[2,3-d]pyrimidin-2-yl]-(4-methyl-3-[1,2,4]triazol-4-ylmethyl-phenyl)-amine]",,≤ 3,,,,,4.2,
"COc1cc(Nc2ncc3ccn(-c4cc(F)c(CN5CCOCC5)c(F)c4)c3n2)cnc1N1C[C@@H](C)N[C@@H](C)C1 [Example 497, [7-(3,5-Difluoro-4-morpholin-4-ylmethyl-phenyl)-7H-pyrrolo[2,3-d]pyrimidin-2-yl]-[6-(cis-3,5-dimethyl-piperazin-1-yl)-5-methoxy-pyridin-3-yl]-amine]",,≤ 3,,,,,7.7,
"C[C@@H]1CN(c2ncc(Nc3ncc4ccn(-c5cc(F)c(CN6CCOCC6)c(F)c5)c4n3)cc2Cl)C[C@H](C)N1 [Example 489, [5-Chloro-6-(cis-3,5-dimethyl-piperazin-1-yl)-pyridin-3-yl]-[7-(3,5-difluoro-4-morpholin-4-ylmethyl-phenyl)-7H-pyrrolo[2,3-d]pyrimidin-2-yl]-amine]",,0.7,,,,,12,
